Data reported in US8841233B2, “Herbicidal compositions comprising 4-amino-3-chloro-5-fluoro-6-(4-chloro-2-fluoro-3-methoxyphenyl) pyridine-2-carboxylic acid or a derivative thereof and 4-hydroxyphenyl-pyruvate dioxygenase (HPPD) inhibitors” (Dow Agrosciences LLC, priority 2012, dated 2014).

Tested on: IPOHE
Assay: Post-emergence foliar-applied weed control, greenhouse (Example I);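 for Visual Weed Control (%) - 20 DAA IPOHE Obs: visual score 0 no injury to 100 complete kill versus untreated plants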
Assay type: in vivo, Ipomoea hederacea Jacq.
From the text: Evaluation of Post-emergence Foliar-Applied Herbicidal Mixtures for Weed Control in Direct Seeded Rice
Seeds or nutlets of the desired test plant species were planted in a soil matrix prepared by mixing a loam or sandy loam soil (e.g., 28.6 percent silt, 18.8 percent clay, and 52.6 percent sand, with a pH of about 5.8 and an organic matter content of about 1.8 percent) and calcareous grit in an 80 to 20 ratio. The soil matrix was contained in plastic pots with a volume of 1 quart and a surface area of 83.6 square centimeters (cm^2). When required to ensure good germination and healthy plants, a fungicide treatment and/or other chemical or physical treatment was applied. The plants were grown for 8-22 days in a greenhouse with an approximate 14 h photoperiod which was maintained at about 29° C. during the day and 26° C. during the night. Nutrients (Peters Excel® 15-5-15 5-Ca 2-Mg and iron chelate) were applied in the irrigation solution as needed and water was added on a regular basis. Supplemental lighting was provided with overhead metal halide 1000-Watt lamps as necessary. The plants were employed for testing when they reached the first through fourth true leaf stage.
Treatments consisted of the acid or esters of 4-amino-3-chloro-5-fluoro-6-(4-chloro-2-fluoro-3-methoxy-phenyl)pyridine-2-carboxylic acid (Compound A), each formulated as an SC (suspension concentrate), and various herbicidal components alone and in combination. Forms of Compound A were applied on an acid equivalent basis.
Other herbicidal components were applied on an active ingredient basis and included 4-hydroxyphenyl pyruvate dioxygenase (HPPD)-inhibiting herbicides mesotrione formulated as Callisto®, sulcotrione formulated as Mikado®, pyrazolynate formulated as Sunbird® 10% GR, and benzobicyclon formulated as Benzobicyclon 3.5%.
Treatment requirements were calculated based upon the rates being tested, the concentration of active ingredient or acid equivalent in the formulation, and a 12 mL application volume at a rate of 187 L/ha.
For treatments comprised of formulated compounds, measured amounts of compounds were placed individually in 25 mL glass vials and diluted in a volume of 1.25% (v/v) Agri-Dex® crop oil concentrated to obtain 12× stock solutions. […] Application solutions were prepared by adding an appropriate amount of each stock solution (e.g., 1 mL) and diluted to the appropriate final concentrations with the addition of 10 mL of an aqueous mixture of 1.25% (v/v) crop oil concentrate so that the final spray solutions contained 1.25+/−0.05% (v/v) crop oil concentrate.
For treatments comprised of formulated and technical compounds, weighed amounts of the technical materials were placed individually in 25 mL glass vials and dissolved in a volume of 97:3 v/v acetone/DMSO to obtain 12× stock solutions, and measured amounts of the formulated compounds were placed individually in 25 mL glass vials and diluted in a volume of 1.5% (v/v) crop oil concentrate or water to obtain 12× stock solutions. […] Application solutions were prepared by adding an appropriate amount of each stock solution (e.g., 1 mL) and diluted to the appropriate final concentrations with the addition of an appropriate amount of an aqueous mixture of 1.5% (v/v) crop oil concentrate so that the final spray solutions contained 1.25% (v/v) crop oil concentrate. As required, additional water and/or 97:3 v/v acetone/DMSO was added to individual application solutions so that the final acetone and DMSO concentrations of the application solutions being compared were 8.1% and 0.25%, respectively.
All stock solutions and applications solutions were visually inspected for compound compatibility prior to application. Spray solutions were applied to the plant material with an overhead Mandel track sprayer equipped with a 8002E nozzles calibrated to deliver 187 L/ha over an application area of 0.503 m^2 at a spray height of 18 to 20 inches (46 to 50 cm) above average plant canopy height. […]

SMILES	Visual Weed Control (%) - 20 DAA IPOHE Obs (4.38 gae/ha) [%]	Visual Weed Control (%) - 20 DAA IPOHE Obs (8.75 gae/ha) [%]	Visual Weed Control (%) - 20 DAA IPOHE Obs (17.5 gae/ha) [%]	Visual Control (%) - 20 DAA IPOHE Obs (4.38 gae/ha) [%]	Visual Control (%) - 20 DAA IPOHE Obs (8.75 gae/ha) [%]	Visual Control (%) - 20 DAA IPOHE Obs (17.5 gae/ha) [%]	Visual Weed Control (%) - 21 DAA IPOHE Obs (17.5 gae/ha) [%]	Visual Weed Control (%) - 21 DAA IPOHE Obs (35 gae/ha) [%]
COc1c(Cl)ccc(-c2nc(C(=O)OCc3ccccc3)c(Cl)c(N)c2F)c1F [Compound A Benzyl Ester, benzyl ester of 4-amino-3-chloro-5-fluoro-6-(4-chloro-2-fluoro-3-methoxy-phenyl)pyridine-2-carboxylic acid]	10	10	20					
COc1c(Cl)ccc(-c2nc(C(=O)O)c(Cl)c(N)c2F)c1F [Compound A Acid, 4-amino-3-chloro-6-(4-chloro-2-fluoro-3-methoxyphenyl)-5-fluoropyridine-2-carboxylic acid]				10	35	40	25	48
